According to publication PMC8510480, “Searching Anti-Zika Virus Activity in 1H-1,2,3-Triazole Based Compounds” (Molecules, 2021):

What was measured:
[1] = Cytotoxicity test with MTT method in Vero cells; format: cell-based, African green monkey; conditions: African green monkey, 5 days, read-out: CC50 (50% cytotoxic concentration)
Experimental: (§1) The cytotoxicity of compounds 1–7 to Vero cells, an epithelial cell line derived from the kidney of an African green monkey, was tested using the 3-(4,5-dimethylthiazol-2-yl)-2,5-diphenyltetrazolium bromide (MTT) method. […] Based on CC20 values, which was the maximum concentration used for antiviral screening, 3b compound was the least toxic with a value of 527.2 µM. Compounds 2a and 2b were the most cytotoxic with values of 8.87 µM and 9.89 µM, respectively. […] The results from compounds 3a, 3b and 4a, 4b ranged from 40.69 to 527.20 µM. […] The presence of phthalimide group or sugar increases the values of CC20 and CC50 (Table 2 and Supplementary Material: Figure S1).
(§2) 96-well plates with 1 × 10^4 cell/well were used in this assay and prepared 24 h previously. The compounds were diluted in a 2:1 ratio so that a maximum of 0.8% DMSO was used. The concentrations used were 800, 400, 200, 100, 50, 25 and 12.5 µM. Dilutions were added to the wells in triplicate and incubated at 37 °C and 5% CO2 atmosphere. After 5 days, the wells were emptied and a 50 µL of 1 mg/mL MTT (3-(4,5-dimethylthiazol-2-yl)-2,5-diphenyltetrazolium bromide) (Sigma-Aldrich) solution was added, and the cells were incubated for 3–4 h for formation of formazan crystals through the mitochondria of viable cells. Then, medium was removed and 100 µL DMSO was added to the wells to solubilize the formazan crystals. With the aid of an incubator Tecnal TE-420 (Tecnal Equipamentos Científicos, Piracicaba, São Paulo, Brazil), the plates were homogenized at 120 RPM at 37 °C and the optical densities were read at 570 nm on a spectrophotometer BioTekTM ELx800TM (BioTek Instruments, Winooski, VT, USA).
(§3) The determination of the CC20 and CC50 values was obtained through the linear regression analysis of the XY graph generated by the values of the concentrations used in the test and the triplicate values of the viability. In the post-infection and pre-treatment tests, ANOVA and Dunnett tests were used, considering […] as the minimum significance value. All tests were performed in GraphPad Prism v.6.0 program (GraphPad Software, Inc., San Diego, CA, USA).

Vero cells = test: Cytotoxicity test with MTT method in Vero cells; format: cell-based, African green monkey; conditions: 5 days
Experimental: as §1, §2, §3

ZIKV = test: Screening test for anti-ZIKV activity (post-infection, compounds at CC20, TCID50 titration); format: cell-based, Zika virus; conditions: ZIKV MOI 0.1, compound at CC20, 5 days, TCID50, Vero cells
Experimental: The antiviral activities of the compounds were evaluated by infecting Vero cells with ZIKV and then treating them with the testing molecules. Virus titer in the supernatants of treated wells and its comparison with the negative (cell + virus) and the positive 6-methylmercaptopurine riboside (6MMPr) controls allowed for the determination of the antiviral effect.
Figure 4 Graphic result of all triazole derivates in the screening test for anti-ZIKV activity. The screening test was made for post-infection with ZIKV MOI 0.1 and treated with CC20 values from heterocyclic compounds discovered in the cytotoxicity test. After five days, the supernatant was collected and titrated by TCID50 method. The experiment was conducted in triplicates and values are the mean and the standard deviation (SD). […]
96-well plates with 1 × 10^4 cell/well were used in this assay and prepared 24 h previously. […] The reading was performed in an inverted optical microscope AE2000, Motic (Motic, Kowloon Bay, Hong Kong) counting positives wells by the presence of cytopathic effect and the determination of the sample title was performed with the aid of the Microsoft Office Excel program (Microsoft® Office, Redmond, WA, USA).
The screening of the compounds was carried out with the CC20 value (µM) to determine the most viable compounds for more detailed antiviral tests. […] The samples were then titrated and analysed statistically.

O=C1C(Br)=C(NCc2cn(CN3C(=O)c4ccccc4C3=O)nn2)C(=O)c2ccccc21 [Compound 4b]
CC50 at 5 days [1]: 330 µM | CC20 (20% cytotoxic concentration) (Vero cells): 136.90 µM | reduction in viral titer vs non-treated control (ZIKV): statistically significant reduction in viral titer
